Publication PMC7198601, “Side chain effect in the modulation of αvβ3/α5β1 integrin activity via clickable isoxazoline-RGD-mimetics: development of molecular delivery systems” (Scientific Reports, 2020)

Assays:
HEK293 + α5 cells = assay: Confocal microscopy of FITC-conjugate internalization in HEK293 + α5 cells; type: cell-based, human; settings: 0.1–1 μM
Experimental: (§1) In order to visualize the localization of isoxazolines inside the cells and to explore the possibility to use them as shuttles for selective delivery of therapeutic payloads and diagnostics, compound 31 was synthesized conjugating 17b with FITC, as described above. […] In addition, the internalization of compound 31 was concentration-dependent: at a higher concentration (1 μM) it accumulated inside the cells in a greater extent.
(§2) Figure 5 Confocal microscopy images of HEK293 or HEK293 + α5, HEK293 + αvβ3 and K562 cells treated with compound 31 (Cpd 31). […] In the left column of each panel green (FITC) fluorescence was shown, whereas in right one green and blue (DAPI) signals were merged. […] Scale bar: 30 µm. d) Compound 31 internalization was evaluated according to green fluorescence intensity in the cells and is reported in the graph. […]
(§3) Specimens were embedded in Mowiol and analyzed using a Nikon C1s confocal laser-scanning microscope, equipped with a Nikon PlanApo 60×, 1.4-NA oil immersion lens. […]
(§4) For internalization analysis of ligand 31, the mean fluorescence intensity was related to the background; the relative fluorescence intensity is reported in the graph in Fig. 5.

HEK293 cells = assay: Confocal microscopy of FITC-conjugate internalization in HEK293 cells not expressing α5; type: cell-based, human; settings: HEK293 cells that do not express α5 integrin, 0.1–1 μM
Experimental: as §1, §2, §3, §4

K562 cells = assay: Confocal microscopy of FITC-conjugate internalization in K562 cells; type: cell-based, human
Experimental: (§5) Figure 5 Confocal microscopy images of HEK293 or HEK293 + α5, HEK293 + αvβ3 and K562 cells treated with compound 31 (Cpd 31). Cells were exposed to compound 31 (0.1–1 μM) or its vehicle for 60 minutes at 4 °C and thereafter cells were moved to 37 °C for 15 minutes to promote integrin internalization and fixed as described in Methods. a) Compound 31, conjugated with FITC was able to enter the cells in α5 integrin-dependent manner: it was internalized in HEK293 + α5 but not in HEK293 cells. Right Panels: HEK293 cells not expressing α5 integrin subunit. Left Panels: HEK293 + α5. b) Concentration-dependent internalization of compound 31 was observed also in K562 cancer cells, endogenously expressing α5β1 integrin. […] In the left column of each panel green (FITC) fluorescence was shown, whereas in right one green and blue (DAPI) signals were merged. Nuclei were counterstained with DAPI. Scale bar: 30 µm. d) Compound 31 internalization was evaluated according to green fluorescence intensity in the cells and is reported in the graph. […]
as §3, §4

HEK293 + αvβ3 cells = assay: Confocal microscopy of FITC-conjugate internalization in HEK293 + αvβ3 cells; type: cell-based, human; settings: HEK293 + αvβ3 cells not expressing α5β1, 0.1–1 μM
Experimental: as §5, §3, §4

α5β1 integrin [1] = biological target: T1, α5β1 integrin (Homo sapiens, UniProt P05556+P08648); assay: Cell adhesion assay: K562 cells to immobilized fibronectin (α5β1 integrin-mediated)
T1 sequence (P08648 42-894 limits assumed): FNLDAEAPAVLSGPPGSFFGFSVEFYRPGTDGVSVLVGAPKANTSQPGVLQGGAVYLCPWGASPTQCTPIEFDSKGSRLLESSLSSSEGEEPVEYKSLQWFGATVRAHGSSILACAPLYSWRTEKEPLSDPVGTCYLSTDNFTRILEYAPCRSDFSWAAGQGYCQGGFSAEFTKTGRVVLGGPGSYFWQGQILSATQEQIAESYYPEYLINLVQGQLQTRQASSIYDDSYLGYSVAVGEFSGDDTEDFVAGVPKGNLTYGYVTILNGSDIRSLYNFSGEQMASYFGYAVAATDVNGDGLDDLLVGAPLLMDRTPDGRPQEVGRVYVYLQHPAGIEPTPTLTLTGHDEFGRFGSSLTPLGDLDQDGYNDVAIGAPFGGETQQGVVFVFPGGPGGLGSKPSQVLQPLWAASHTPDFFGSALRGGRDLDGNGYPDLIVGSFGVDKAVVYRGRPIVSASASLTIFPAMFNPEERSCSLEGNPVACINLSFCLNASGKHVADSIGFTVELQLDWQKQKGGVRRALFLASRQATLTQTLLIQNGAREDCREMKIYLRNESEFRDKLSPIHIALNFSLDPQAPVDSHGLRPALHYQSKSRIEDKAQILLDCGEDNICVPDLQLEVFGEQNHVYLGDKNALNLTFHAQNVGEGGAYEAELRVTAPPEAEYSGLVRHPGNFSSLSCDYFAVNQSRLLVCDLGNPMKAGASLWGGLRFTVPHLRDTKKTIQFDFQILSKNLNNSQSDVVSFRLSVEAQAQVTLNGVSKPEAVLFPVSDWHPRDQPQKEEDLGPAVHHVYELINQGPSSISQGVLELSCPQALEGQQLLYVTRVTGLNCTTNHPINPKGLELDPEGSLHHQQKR
T1 sequence (P08648 895-1049 partner limits assumed): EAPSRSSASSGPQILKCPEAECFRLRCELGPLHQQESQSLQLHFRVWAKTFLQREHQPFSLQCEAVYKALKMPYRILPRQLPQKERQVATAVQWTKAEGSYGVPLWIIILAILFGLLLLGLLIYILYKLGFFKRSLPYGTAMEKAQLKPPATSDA
T1 sequence (P05556 21-798): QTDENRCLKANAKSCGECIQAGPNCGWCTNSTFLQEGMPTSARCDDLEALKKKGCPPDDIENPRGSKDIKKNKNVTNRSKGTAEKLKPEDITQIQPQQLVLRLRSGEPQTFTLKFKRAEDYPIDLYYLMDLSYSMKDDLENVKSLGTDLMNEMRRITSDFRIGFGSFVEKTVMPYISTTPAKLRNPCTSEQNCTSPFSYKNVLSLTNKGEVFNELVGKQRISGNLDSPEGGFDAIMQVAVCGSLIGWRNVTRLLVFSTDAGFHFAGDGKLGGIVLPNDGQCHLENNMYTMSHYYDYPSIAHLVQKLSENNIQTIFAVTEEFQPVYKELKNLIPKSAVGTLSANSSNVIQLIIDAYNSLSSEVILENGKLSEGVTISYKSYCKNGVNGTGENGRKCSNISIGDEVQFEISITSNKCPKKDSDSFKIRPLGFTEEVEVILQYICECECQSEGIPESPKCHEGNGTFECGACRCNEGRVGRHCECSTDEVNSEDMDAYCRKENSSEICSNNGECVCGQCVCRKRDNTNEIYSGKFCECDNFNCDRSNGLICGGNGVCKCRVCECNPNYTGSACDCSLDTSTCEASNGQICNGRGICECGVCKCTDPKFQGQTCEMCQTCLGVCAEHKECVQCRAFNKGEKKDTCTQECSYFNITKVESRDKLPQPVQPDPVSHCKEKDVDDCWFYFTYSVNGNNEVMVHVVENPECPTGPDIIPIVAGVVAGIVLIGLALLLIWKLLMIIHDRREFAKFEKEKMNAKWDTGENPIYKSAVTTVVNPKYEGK
Experimental: (§8) The ability of the synthesized racemic ligands to inhibit the adhesion of K562 cells (human erythroleukemic cells, expressing α5β1 integrin) or SK-MEL-24 cells (human malignant melanoma cells, expressing αvβ3 integrin) to immobilized fibronectin was evaluated[29]. […] In these experiments, the cells were seeded onto plates coated with fibronectin and allowed to adhere before quantitation of the number of adherent cells, in presence of increasing concentrations of the compounds.
(§9) SK-MEL-24 (American Tissue Culture Collection, ATCC, Rockville, MD) were routinely grown in minimum essential medium (MEM, Cambrex, Walkersville, MD) supplemented with 10% fetal bovine serum (FBS), nonessential amino acids, and sodium pyruvate. K-562 (ATCC, Rockville, MD) were maintained as a stationary suspension culture in RPMI-1640 and L-glutamine with 10% FBS (Invitrogen (Carlsbad, CA). Cells were kept at 37 °C in a 5% CO2 humidified atmosphere. Forty hours before experiments, K-562 were treated with 25 ng/mL PMA (Sigma-Aldrich SRL, Milan, Italy) to induce differentiation and to increase expression of cell surface antigens[50].
(§10) Plates (96 wells) (Corning Costar, Celbio, Milan,Italy) were coated by passive adsorption with fibronectin (10 µg/mL) or poly-L-lysine (0.002%) (Sigma-Aldrich SRL) overnight at 4 °C. Cells were counted with a haemocytometer and pre-incubated with different concentrations of each compound or with the vehicle (methanol) for 30 min at room temperature to reach a ligand-receptor equilibrium. Stock solutions (10^–2 M) of the assayed compounds were prepared in phosphate-buffered saline (PBS). […] This product is a chromogenic substrate for β-N-acetylglucosaminidase that is transformed in 4-nitrophenol whose absorbance can be measured at 405 nm. As previously described[51], there is a linear correlation between absorbance and enzymatic activity. Therefore, it is possible to identify the number of adherent cells among treated wells, interpolating the absorbance values of unknowns in a calibration curve. The reaction was blocked by addition of 100 µL of a stopping solution [50 µM glycine and 5 µM EDTA (pH 10.4)], and the plates were read in an EnSpire Multimode Plate Reader (PerkinElmer, Waltham, MA, USA). Experiments were carried out in quadruplicate and repeated at least three times. Data analysis and IC50/EC50 values were calculated using Graph-Pad Prism 5.0 (GraphPad Software, San Diego, CA).

selected integrins = assay: Effect of the aromatised degradation product on the activity of selected integrins
Experimental: (§6) LC-MS injections were performed after 30 min from the preparation of the samples and then after each 1.5 hours, following the experiments for 14 h (Fig. 4). […] As a consequence of the spontaneous aromatization of A, also an increasing amount of B was observed after a short period. The aromatised form B was tested to evaluate its effect on the activity of selected integrins but, as consequence of the absence of a crucial pharmacophore, it was not active. This behaviour doesn’t represent a big issue since strong basic conditions are quite unusual in physiological environment. In fact under stress conditions with a large excess of base, the decomposition of 17b to A occurred in few minutes.

[2] = tested on: α5β1 integrin-mediated phosphorylation of ERK1/2; assay: α5β1 integrin-mediated ERK1/2 phosphorylation in K562 cells (Western blot); type: cell-based, human; settings: K562 cells preincubated with compound 10^−7–10^−9 M, then plated on fibronectin
Experimental: The mechanism by which components of extracellular matrix generate intracellular signalling through integrins requires indeed an increased phosphorylation of cytoplasmatic second messengers. Phosphorylation of ERK1/2 plays a central role in fibronectin-mediated survival signalling through integrins: in fact, cell adhesion activates ERK1/2 by binding of α5β1 integrins at the cell surface to extracellular matrix proteins such as fibronectin. The experiment was performed by serum-starving K562 cells in RPMI-1640 containing 1% FBS for 16 h; thereafter, they were preincubated with compound 17b, 24 (10^−7–10^−9 M) or the vehicle for 60 minutes and then plated for 60 minutes on fibronectin.
Figure 2 (a) Cropped blots related to the effect of compounds 17b and 24 on α5β1 integrin-mediated phosphorylation of ERK1/2 in K562 cells. Cells were serum-starved in RPMI-1640 containing 1% FBS for 16 h; then cells were preincubated with different concentrations of the antagonist 17b (10^−7–10^−9 M) or its vehicle for 1 h in suspension and then were allowed to adhere for 1 h on fibronectin (FN). […] Thereafter cells were lysed and lysates were analysed in Western blot using an antibody directed against phosphorylated ERK1/2 (pERK1/2) or total ERK1/2 (totERK1/2). […]
K562 cells were incubated in RPMI-1640 with 1% FBS for 16 h. […] Digital images were acquired and analyzed following previously reported methods.

α5β1 integrin [3] = biological target: T1, α5β1 integrin; assay: α5β1 integrin internalization by confocal microscopy in HEK293 + α5-EGFP cells; type: cell-based; settings: compound 1 µM pre-incubated before fibronectin 10 µg/mL
Excerpt: Integrin trafficking is an important mechanism employed by cells to regulate integrin–extracellular matrix interactions, and thus cellular signalling, during processes such as cell migration and invasion. α5β1 integrin is internalized, trafficked to recycling endosomes and then recycled to the plasma membrane[43],[44]. Membrane trafficking pathways influence α5β1’s ability to promote invasion and metastasis[45],[46]. […]
HEK293 cells (not expressing α5 but endogenously expressing β1 integrin[47],[48] were plated in 6 well plates and at 50–60% confluence were transiently transfected with α5-EGFP plasmid using Lipofectamine2000 transfection reagent (LifeTechnologies). After 48 h from transfection, HEK293 + α5-EGFP cells were assessed to verify integrins expression by flow cytometry (data not shown). α5-EGFP integrin plasmid was a kind gift from Michael Davidson (Addgene plasmid #56423). HEK293 + α5-EGFP cells were treated at 4 °C with fibronectin (10 µg/ml) or the agonist 24 (1 µM) in MEM for 1 hour. Cells exposed to the antagonist 17b (1 µM), before the addition of fibronectin, were pre-incubated with the compound for 20 minutes at 4 °C. […]
as §3

[4] = Stability in water at neutral, basic and acidic pH (LC-MS); type: physicochemical; settings: for loss of product: water, after several hours
Experimental: as §6
(§7) Figure 4 Stability of 17b in neutral, basic, acidic and physiological conditions and its possible degradation pathway. Conditions: 17b (0.1 mmol) in 300 µl of solvent (water or bovine serum). 5 eq of LiOH·H2O or HCl 1 M were added.

[5] = Stability in bovine serum (LC-MS); type: in vitro ADME
Experimental: as §6, §7

αvβ3 integrin = αvβ3 integrin (Homo sapiens, UniProt P05106+P06756); assay: Cell adhesion assay: SK-MEL-24 cells to immobilized fibronectin (αvβ3 integrin-mediated)
αvβ3 integrin, sequence (P06756 31-889 limits assumed): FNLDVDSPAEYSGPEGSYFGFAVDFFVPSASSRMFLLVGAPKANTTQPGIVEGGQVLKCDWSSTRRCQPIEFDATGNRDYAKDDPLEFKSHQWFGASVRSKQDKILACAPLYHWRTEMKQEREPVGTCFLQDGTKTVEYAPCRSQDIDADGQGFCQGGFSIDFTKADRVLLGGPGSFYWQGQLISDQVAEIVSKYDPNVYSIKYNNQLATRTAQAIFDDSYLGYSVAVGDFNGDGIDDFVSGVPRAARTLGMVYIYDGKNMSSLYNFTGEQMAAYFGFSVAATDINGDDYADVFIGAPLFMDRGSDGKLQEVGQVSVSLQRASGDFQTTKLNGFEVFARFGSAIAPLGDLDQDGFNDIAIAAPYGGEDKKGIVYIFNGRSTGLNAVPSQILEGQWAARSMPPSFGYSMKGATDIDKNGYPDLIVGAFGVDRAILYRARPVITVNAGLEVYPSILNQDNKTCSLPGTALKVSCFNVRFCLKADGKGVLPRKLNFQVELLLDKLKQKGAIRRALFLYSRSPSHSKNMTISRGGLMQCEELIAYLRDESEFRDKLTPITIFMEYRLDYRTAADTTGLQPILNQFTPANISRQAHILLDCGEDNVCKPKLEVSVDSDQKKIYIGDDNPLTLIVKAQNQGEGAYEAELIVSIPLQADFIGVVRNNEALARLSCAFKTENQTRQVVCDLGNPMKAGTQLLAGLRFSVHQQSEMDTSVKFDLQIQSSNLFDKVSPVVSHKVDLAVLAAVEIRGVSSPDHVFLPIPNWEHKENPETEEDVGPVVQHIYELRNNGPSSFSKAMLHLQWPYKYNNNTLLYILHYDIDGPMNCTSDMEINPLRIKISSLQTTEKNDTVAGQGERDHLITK
αvβ3 integrin, sequence (P06756 891-1048 partner limits assumed): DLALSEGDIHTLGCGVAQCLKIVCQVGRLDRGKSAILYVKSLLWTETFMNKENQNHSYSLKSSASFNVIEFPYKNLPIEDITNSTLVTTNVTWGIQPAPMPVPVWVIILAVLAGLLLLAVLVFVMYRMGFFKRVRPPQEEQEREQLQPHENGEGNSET
αvβ3 integrin, sequence (P05106 27-788): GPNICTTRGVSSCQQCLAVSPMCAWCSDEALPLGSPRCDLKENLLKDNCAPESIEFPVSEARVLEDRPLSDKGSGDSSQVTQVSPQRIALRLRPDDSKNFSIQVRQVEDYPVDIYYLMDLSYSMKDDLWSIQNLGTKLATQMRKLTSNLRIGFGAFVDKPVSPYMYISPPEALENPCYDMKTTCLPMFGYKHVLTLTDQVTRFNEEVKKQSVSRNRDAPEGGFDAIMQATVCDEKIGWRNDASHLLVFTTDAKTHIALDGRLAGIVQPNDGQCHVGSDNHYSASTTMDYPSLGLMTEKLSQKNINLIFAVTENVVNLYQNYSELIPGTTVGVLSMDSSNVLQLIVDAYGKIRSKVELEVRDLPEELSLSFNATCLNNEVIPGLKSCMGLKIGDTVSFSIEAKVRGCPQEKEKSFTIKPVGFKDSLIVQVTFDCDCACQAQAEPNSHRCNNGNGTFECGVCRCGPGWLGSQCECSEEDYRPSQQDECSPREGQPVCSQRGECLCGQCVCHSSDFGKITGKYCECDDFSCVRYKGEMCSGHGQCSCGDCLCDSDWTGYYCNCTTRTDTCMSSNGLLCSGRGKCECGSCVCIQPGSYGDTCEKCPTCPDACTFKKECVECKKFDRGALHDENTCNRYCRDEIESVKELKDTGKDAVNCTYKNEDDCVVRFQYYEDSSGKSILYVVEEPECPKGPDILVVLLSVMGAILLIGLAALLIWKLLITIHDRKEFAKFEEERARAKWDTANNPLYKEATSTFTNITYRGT
Experimental: as §8, §9, §10

[6] = K562 cell adhesion to fibronectin

CC1=C(C(=O)NCc2ccc(N)cc2)C(CCCc2cn(CCCNC(=S)Nc3ccc(-c4c5ccc(=O)cc-5oc5cc(O)ccc45)c(C(=O)O)c3)nn2)N(C(=O)CC(=O)O)O1 (stereo not drawn) [Compound 31]
intracellular localization / internalization (HEK293 + α5 cells): localized in the cell cytoplasm | internalization (HEK293 cells): not able to enter | internalization (K562 cells; 0.1–1 μM): internalized in K562 cells in a concentration-dependent way | internalization (HEK293 + αvβ3 cells): not able to be internalized | IC50 (α5β1 integrin [1]): 0.13 ± 0.01 µM | α5β1 behaviour (agonist/antagonist) (α5β1 integrin [1]; [6]): antagonist | α5β1 IC50/EC50 (IC50 for antagonists) (α5β1 integrin [1]; K562 cell adhesion to fibronectin, antagonists, also >1000 cells with behaviour not given, mean ± SD): 0.13 ± 0.01 µM

Cc1onc(CCCc2cn(CCCNC(=O)OC(C)(C)C)nn2)c1C(=O)NCc1ccc(N)cc1 [B]
effect on the activity of selected integrins (selected integrins): not active

CC[C@@]1([C@@H]2O[C@@H]([C@H]3O[C@@](O)(CO)[C@H](C)C[C@@H]3C)C[C@@H]2C)CC[C@H]([C@]2(C)CC[C@]3(C[C@H](O)[C@@H](C)[C@@H]([C@@H](C)[C@@H](OC)[C@H](C)C(=O)O)O3)O2)O1 [monensin, reference compound]
effect on compound 31 internalization (K562 cells; monensin 2 µM for 2 h): significantly inhibited

CC1=C(C(=O)NCc2ccc(N)cc2)C(CCCc2cn(CCCNC(=O)OC(C)(C)C)nn2)N(C(=O)CC(=O)O)O1 (stereo not drawn) [Compound 17b]
fibronectin-induced ERK1/2 phosphorylation levels [2]: significant concentration-dependent reduction | effect on fibronectin-induced α5β1 integrin internalization (α5β1 integrin [3]): prevented integrin internalization | loss of product ([4]; acidic treatment (pH=3, HCl)): 5% | loss of product ([4]; neutral conditions (pH=7)): 5% | decomposition to A ([4]; stress conditions with a large excess of base): few minutes | stability in bovine serum [5]: no significant degradation | IC50 (α5β1 integrin [1]): 0.0027 ± 0.0004 µM | α5β1 behaviour (agonist/antagonist) (α5β1 integrin [1]; [6]): antagonist | IC50 (αvβ3 integrin): > 1000 µM
